Test results taken from ChEMBL document CHEMBL4673349, “Trichodestruxins A-D: Cytotoxic Cyclodepsipeptides from the Endophytic Fungus Trichoderma harzianum” (J Nat Prod, 2020).
Structures can show the parent of a compound that is named as a salt.

How the values were obtained:
Format in all cases: functional, cell-based
[1] = tested on: P388; experiment: Cytotoxicity against mouse p388 cells assessed as reduction in cell viability after 72 hrs by MTT assay; settings: P388, 72 h
[2] = tested on: HT-29; experiment: Cytotoxicity against human HT-29 cells assessed as reduction in cell viability after 72 hrs by MTT assay; settings: HT-29, 72 h
[3] = tested on: A549; experiment: Cytotoxicity against human A549 cells assessed as reduction in cell viability after 72 hrs by MTT assay; settings: A549, 72 h

Structure (SMILES)	IC50 [1]	IC50 [2]	IC50 [3]
COc1cccc2c1C(=O)c1c(O)c3c(c(O)c1C2=O)C[C@@](O)(C(=O)CO)C[C@@H]3O[C@H]1C[C@H](N)[C@H](O)[C@H](C)O1 [DOXORUBICIN HYDROCHLORIDE]	0.3 µM	1.8 µM	2.3 µM
C=CC[C@H]1OC(=O)CCNC(=O)[C@H](C)N(C)C(=O)[C@H](C(C)C)N(C)C(=O)[C@H](C(C)C)NC(=O)[C@@H]2[C@@H](C)CCN2C1=O	17 µM	7.8 µM	15.6 µM
CC(C)[C@@H]1NC(=O)[C@@H]2[C@@H](C)CCN2C(=O)[C@@H](C[C@@H](O)CO)OC(=O)CCNC(=O)[C@H](C)N(C)C(=O)[C@H](C(C)C)N(C)C1=O	19.1 µM	16.7 µM	8.8 µM
CC(C)C[C@H]1OC(=O)CCNC(=O)[C@H](C)N(C)C(=O)[C@H](C(C)C)N(C)C(=O)[C@H](C(C)C)NC(=O)[C@@H]2[C@@H](C)CCN2C1=O	8.4 µM	3.4 µM	10.3 µM
CC(C)C[C@H]1OC(=O)CCNC(=O)[C@H](C)NC(=O)[C@H](C(C)C)N(C)C(=O)[C@H](C(C)C)NC(=O)[C@@H]2[C@@H](C)CCN2C1=O	> 20 µM	> 20 µM	17.5 µM
